Read-outs that look alike come from different tables or passages of the source.
Columns and labels:
[1] = tested on: Enterobacteriaceae isolates; type: cell-based; settings: for resistance in the isolates (in words): all Enterobacteriaceae isolates, excluding intrinsic resistance
Description: Urine culture, organism identification, AST, and ESBL confirmatory testing. Standard microbiological procedures were performed by the clinical laboratory as part of routine care for all urine samples used in this study, per the clinical laboratory's standard operating procedures. First, 1 μL or 10 μL of urine sample was plated on standard agar plates (blood agar and eosin methylene blue agar biplate), then visually inspected the next day for significant growth indicative of a UTI (≥10^4 CFU/mL cutoff applied). The MiscroScan WalkAway system (Beckman Coulter) was utilized for bacterial identification and AST of GNB and select GPB causing UTI. […] AST interpretations were based on CLSI's 2017 guidelines.

B. cereus I = B. cereus I (Bacillus cereus, UniProt P00809); settings: cited from earlier work
TEM-1 [2] = target: T1, TEM-1 (Escherichia coli, UniProt P62593); settings: cited from earlier work
[3] = tested on: E. coli clinical isolates; assay: DETECT with β-lactamase inhibitors (clavulanic acid); type: cell-based; settings: original score/inhibitor score, 30 min
Description: (§1) A solution of sodium clavulanate was prepared to 1 mg/400 μL in “buffer 1”, and 4 μL of this solution was added to both the sample and control well for each isolate tested, two min prior to addition of β-lactamase probe or acetonitrile to the sample and control well, respectively. […]

[4] = tested on: K. pneumoniae clinical isolates; assay: as above; type: cell-based; settings: original score/inhibitor score, 30 min
Description: as §1

SHV-1 [5] = target: T2, SHV-1 (Klebsiella pneumoniae, UniProt P0AD64); settings: cited from earlier work
S. aureus PC1 = S. aureus PC1 (Staphylococcus aureus, UniProt P00807); settings: cited from earlier work
SHV-1 [6] = target: T2, SHV-1; settings: cited from earlier work; remark: listed apart in the source
TEM-1 [7] = target: T1, TEM-1; settings: cited from earlier work; remark: listed apart in the source

T1 sequence (P62593 24-286 limits assumed): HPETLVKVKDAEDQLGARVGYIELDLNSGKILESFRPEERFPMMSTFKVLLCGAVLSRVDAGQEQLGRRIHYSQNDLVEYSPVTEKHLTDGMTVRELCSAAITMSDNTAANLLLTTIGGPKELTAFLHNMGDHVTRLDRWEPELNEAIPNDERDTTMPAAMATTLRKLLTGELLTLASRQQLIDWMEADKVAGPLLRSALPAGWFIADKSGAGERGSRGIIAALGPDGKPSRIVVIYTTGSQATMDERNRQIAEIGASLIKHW
T2 sequence (P0AD64 22-286): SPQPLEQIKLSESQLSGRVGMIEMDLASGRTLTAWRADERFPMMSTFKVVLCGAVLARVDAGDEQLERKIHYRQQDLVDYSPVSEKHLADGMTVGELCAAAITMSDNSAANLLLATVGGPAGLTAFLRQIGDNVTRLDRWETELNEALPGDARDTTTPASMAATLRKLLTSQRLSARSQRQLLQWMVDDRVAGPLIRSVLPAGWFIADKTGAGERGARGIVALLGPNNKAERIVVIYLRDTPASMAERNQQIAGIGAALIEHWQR
Sequence of S. aureus PC1 (P00807 25-281): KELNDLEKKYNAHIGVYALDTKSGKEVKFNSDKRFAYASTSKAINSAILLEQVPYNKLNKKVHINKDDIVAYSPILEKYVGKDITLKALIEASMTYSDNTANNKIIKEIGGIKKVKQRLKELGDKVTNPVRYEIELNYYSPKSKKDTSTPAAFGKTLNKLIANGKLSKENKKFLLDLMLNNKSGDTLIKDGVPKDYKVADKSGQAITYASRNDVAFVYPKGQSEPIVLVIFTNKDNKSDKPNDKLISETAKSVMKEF
Sequence of B. cereus I (P00809 28-306): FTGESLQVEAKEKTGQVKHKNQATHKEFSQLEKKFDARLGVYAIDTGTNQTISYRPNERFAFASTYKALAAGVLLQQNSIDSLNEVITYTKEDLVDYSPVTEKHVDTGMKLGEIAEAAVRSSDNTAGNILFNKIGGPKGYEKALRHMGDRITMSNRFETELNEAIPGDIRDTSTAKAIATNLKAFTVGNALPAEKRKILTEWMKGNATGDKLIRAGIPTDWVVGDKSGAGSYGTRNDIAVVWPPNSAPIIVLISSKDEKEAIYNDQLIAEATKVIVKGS

C[C@H]1COc2c(N3CCN(C)CC3)c(F)cc3c(=O)c(C(=O)O)cn1c23 [levofloxacin]
resistance identified, number of isolates ([1]; CTX-M-producing bacteria): 8 | resistance identified, percent of isolates ([1]; CTX-M-producing bacteria): 73% | resistance identified, number of isolates ([1]; bacteria lacking CTX-Ms): 13 | resistance identified, percent of isolates ([1]; bacteria lacking CTX-Ms): 14%

trimethoprim/sulfamethoxazole
resistance identified, number of isolates ([1]; CTX-M-producing bacteria): 8 | resistance identified, percent of isolates ([1]; CTX-M-producing bacteria): 73% | resistance identified, number of isolates ([1]; bacteria lacking CTX-Ms): 21 | resistance identified, percent of isolates ([1]; bacteria lacking CTX-Ms): 22%

CO[C@@]1(NC(=O)Cc2cccs2)C(=O)N2C(C(=O)O)=C(COC(N)=O)CS[C@@H]21 [cefoxitin]
resistance in the isolates (in words) [1]: rare

O=C(O)[C@H]1/C(=C/CO)O[C@@H]2CC(=O)N21 [clavulanic acid]
turnover number (tn), inhibitor molecules to inactivate one β-lactamase enzyme (B. cereus I): more than 16,000 | turnover number (tn), inhibitor molecules to inactivate one β-lactamase enzyme (TEM-1 [2]): 160 | Times-change in DETECT score, with clavulanic acid ([3]; isolate CDC-081: CMY-2, TEM-1B): 1.6 | Times-change in DETECT score, with clavulanic acid ([3]; isolate CDC-085: CMY-2): 1.3 | Times-change in DETECT score, with clavulanic acid ([3]; isolate CDC-086: CTX-M-14, TEM-1B): 10.7 | Times-change in DETECT score, with clavulanic acid ([3]; isolate CDC-089: CMY-2): 1.6 | Times-change in DETECT score, with clavulanic acid ([3]; isolate D14: CTX-M-15): 5.4 | Times-change in DETECT score, with clavulanic acid ([3]; isolate D129: CTX-M-2, TEM, SHV): 14.2 | Times-change in DETECT score, with clavulanic acid ([3]; isolate D270: CTX-M-17): 12.9 | Times-change in DETECT score, with clavulanic acid ([3]; isolate D304: CTX-M-55/57): 9.9 | Times-change in DETECT score, with clavulanic acid ([3]; isolate D333: CTX-M-14/17/18): 10.3 | Times-change in DETECT score, with clavulanic acid ([3]; isolate D362: CTX-M-15): 4.9 | Times-change in DETECT score, with clavulanic acid ([3]; isolate D497: CTX-M-15): 3.2 | Times-change in DETECT score, with clavulanic acid ([3]; isolate D500: CTX-M-27, CMY-2/130): 1.7 | Times-change in DETECT score, with clavulanic acid ([3]; isolate SF141: CMY-2): 1.5 | Times-change in DETECT score, with clavulanic acid ([3]; isolate SF148: CTX-M-14): 16.8 | Times-change in DETECT score, with clavulanic acid ([3]; isolate SF207: CMY-2): 1.2 | Times-change in DETECT score, with clavulanic acid ([3]; isolate SF325: CTX-M-14/17/18, OXA): 5.7 | Times-change in DETECT score, with clavulanic acid ([3]; isolate SF410: CTX-M-15): 4.8 | Times-change in DETECT score, with clavulanic acid ([3]; isolate SF468: CTX-M-14, TEM-1): 15.5 | Times-change in DETECT score, with clavulanic acid ([3]; isolate SF473: CTX-M-14/17/18): 13.0 | Times-change in DETECT score, with clavulanic acid ([3]; isolate SF487: CTX-M-14): 9.9 | Times-change in DETECT score, with clavulanic acid ([3]; isolate SF674: CTX-M-15): 5.8 | Times-change in DETECT score, with clavulanic acid ([4]; isolate B7: KPC-2, CTX-M-15, TEM-1B, SHV-11): 2.3 | Times-change in DETECT score, with clavulanic acid ([4]; isolate B14: KPC-2, CTX-M-9, TEM-1A, SHV-11): 2.4 | Times-change in DETECT score, with clavulanic acid ([4]; isolate B23: KPC-2, CTX-M-15, TEM-1B, SHV-11, OXA-1): 4.4 | Times-change in DETECT score, with clavulanic acid ([4]; isolate FB13: CTX-M-15, CTX-M-8, TEM-1A, SHV-25/121, OXA-1): 15.3 | Times-change in DETECT score, with clavulanic acid ([4]; isolate FB90: CTX-M-15, CTX-M-8, TEM-1A, SHV-25/121, OXA-1): 14.2 | Times-change in DETECT score, with clavulanic acid ([4]; isolate HAF66: CTX-M-8, TEM-1, SHV-85): 10.5 | Times-change in DETECT score, with clavulanic acid ([4]; isolate HAF102: CTX-M-8, TEM-1, SHV-76): 8.2 | Times-change in DETECT score, with clavulanic acid ([4]; isolate HCD309: CTX-M-8, TEM-1, SHV-1): 5.9 | Times-change in DETECT score, with clavulanic acid ([4]; isolate HCD405: CTX-M-15, SHV-25/121, OXA-1): 17.6 | Times-change in DETECT score, with clavulanic acid ([4]; isolate HON257: CTX-M-2, TEM-15, SHV-25/121): 23.0 | Times-change in DETECT score, with clavulanic acid ([4]; isolate SF681: CTX-M-15, TEM-1B, SHV-11, OXA-1): 3.8 | IC50 fold lower than that for sulbactam (SHV-1 [5]): 580 fold | turnover number (tn), inhibitor molecules to inactivate one β-lactamase enzyme (S. aureus PC1): one | turnover number (tn), inhibitor molecules to inactivate one β-lactamase enzyme (SHV-1 [6]): 60 | IC50 fold lower than that for sulbactam (TEM-1 [7]): 60 fold

gentamicin
resistance identified, number of isolates ([1]; CTX-M-producing bacteria): 5 | resistance identified, percent of isolates ([1]; CTX-M-producing bacteria): 45% | resistance identified, number of isolates ([1]; bacteria lacking CTX-Ms): 7 | resistance identified, percent of isolates ([1]; bacteria lacking CTX-Ms): 7%

CN(C)c1cc(NC(=O)CNC(C)(C)C)c(O)c2c1C[C@H]1C[C@H]3[C@H](N(C)C)C(O)=C(C(N)=O)C(=O)[C@@]3(O)C(O)=C1C2=O [tigecycline]
resistance in the isolates (in words) [1]: no tigecycline-resistant isolates were identified

O=C1CN(/N=C/c2ccc([N+](=O)[O-])o2)C(=O)N1 [nitrofurantoin]
resistance identified, number of isolates ([1]; CTX-M-producing bacteria): 1 | resistance identified, percent of isolates ([1]; CTX-M-producing bacteria): 10% | resistance identified, number of isolates ([1]; bacteria lacking CTX-Ms): 2 | resistance identified, percent of isolates ([1]; bacteria lacking CTX-Ms): 2%

NCC[C@H](O)C(=O)N[C@@H]1C[C@H](N)[C@@H](O[C@H]2O[C@H](CN)[C@@H](O)[C@H](O)[C@H]2O)[C@H](O)[C@H]1O[C@H]1O[C@H](CO)[C@@H](O)[C@H](N)[C@H]1O [amikacin]
resistance identified, number of isolates ([1]; CTX-M-producing bacteria): one

piperacillin/tazobactam
resistance in the isolates (in words) [1]: not detected

CC1(C)[C@H](C(=O)O)N2C(=O)C[C@H]2S1(=O)=O [sulbactam]
turnover number (tn), inhibitor molecules to inactivate one β-lactamase enzyme (TEM-1 [2]): 10,000 | turnover number (tn), inhibitor molecules to inactivate one β-lactamase enzyme (SHV-1 [6]): 13,000

NC[C@H]1O[C@H](O[C@H]2[C@H](O)[C@@H](O[C@H]3O[C@H](CO)[C@@H](O)[C@H](N)[C@H]3O)[C@H](N)C[C@@H]2N)[C@H](N)C[C@@H]1O [tobramycin]
resistance identified, number of isolates ([1]; CTX-M-producing bacteria): 5 | resistance identified, percent of isolates ([1]; CTX-M-producing bacteria): 45% | resistance identified, number of isolates ([1]; bacteria lacking CTX-Ms): 2 | resistance identified, percent of isolates ([1]; bacteria lacking CTX-Ms): 2%

From patent US20220177947A1, “Compounds to Identify Beta-Lactamases, and Methods of Use Thereof” (priority 2019, published 2022)
